Source: publication PMC5951806, “Rapid labelling and covalent inhibition of intracellular native proteins using ligand-directed N-acyl-N-alkyl sulfonamide” (Nature Communications, 2018)

What was measured:
Experiment in all cases: TMT LC-MSMS of 11-labelled proteins
Assay type in all cases: cell-based
[1] = target: elongation factor Tu, mitochondrial (TUFM) (Homo sapiens, UniProt P49411)
[2] = target: T1, Isoform 1 of Voltage-dependent anion-selective channel protein 2 (VDAC2) (Homo sapiens, UniProt P45880)
T1 sequence (P45880 12-294 limits assumed): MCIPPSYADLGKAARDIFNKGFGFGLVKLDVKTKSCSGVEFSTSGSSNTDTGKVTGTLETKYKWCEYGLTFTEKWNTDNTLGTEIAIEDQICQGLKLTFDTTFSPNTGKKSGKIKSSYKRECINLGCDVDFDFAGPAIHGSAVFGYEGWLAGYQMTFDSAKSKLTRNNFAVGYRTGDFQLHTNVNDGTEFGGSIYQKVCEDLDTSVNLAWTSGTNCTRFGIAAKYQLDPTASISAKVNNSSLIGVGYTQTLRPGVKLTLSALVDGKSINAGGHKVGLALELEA

[3] = target: T2, Aldehyde dehydrogenase family 1 member A3 (ALDH1A3) (Homo sapiens, UniProt P47895)
T2 sequence (P47895 1-512): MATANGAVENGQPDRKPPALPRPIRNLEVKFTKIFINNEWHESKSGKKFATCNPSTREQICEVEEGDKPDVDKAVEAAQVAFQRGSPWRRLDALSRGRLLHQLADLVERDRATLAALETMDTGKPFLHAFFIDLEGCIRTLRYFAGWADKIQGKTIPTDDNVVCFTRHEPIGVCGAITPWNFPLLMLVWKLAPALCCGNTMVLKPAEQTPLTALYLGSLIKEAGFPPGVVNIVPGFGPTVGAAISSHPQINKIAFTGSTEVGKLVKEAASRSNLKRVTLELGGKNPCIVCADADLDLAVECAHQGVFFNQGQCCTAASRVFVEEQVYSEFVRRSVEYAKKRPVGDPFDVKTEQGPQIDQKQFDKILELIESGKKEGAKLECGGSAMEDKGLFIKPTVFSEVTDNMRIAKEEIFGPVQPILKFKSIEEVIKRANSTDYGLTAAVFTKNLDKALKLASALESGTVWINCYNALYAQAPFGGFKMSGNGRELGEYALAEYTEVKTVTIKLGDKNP

[4] = sheet Merged, SKBR3 cells, 11 0.5 µM 3 h vs DMSO
[5] = sheet Merged, SKBR3 cells, 11 0.5 µM 3 h vs with PU-H71 10 µM
[6] = sheet Exp1, SKBR3 cells, 11 0.5 µM 3 h vs DMSO
[7] = sheet Exp1, SKBR3 cells, 11 0.5 µM 3 h vs with PU-H71 10 µM

CC(=O)Oc1ccc2c(c1)Oc1cc(OC(C)=O)ccc1C21OC(=O)c2cc(C(=O)NCCOCCOCCNC(=O)CCCC(=O)N(CC#N)S(=O)(=O)c3ccc(C(=O)NCCCn4c(Sc5cc6c(cc5I)OCO6)nc5c(N)ncnc54)cc3)ccc21 [compound 11]
Abundance Ratio: (11) / (11 with PU-H71) ([1]; sheet Exp2, TUFM): 1.006 | Abundance Ratio: (11) / (DMSO) ([1]; sheet Exp2, TUFM): 2.039 | Abundances (Grouped): 11 ([1]; sheet Exp2, TUFM): 67.3 | Abundances (Grouped): 11 with PU-H71 ([1]; sheet Exp2, TUFM, with PU-H71): 66.9 | Abundance Ratio: (11) / (DMSO) [1, 4]: 2.024 | Abundance Ratio: (11) / (11 with PU-H71) [1, 5]: 0.818 | Abundance Ratio: (11) / (11 with PU-H71) ([2]; Exp3, VDAC2): 0.617 | Abundance Ratio: (11) / (DMSO) ([2]; Exp3, VDAC2): 3.942 | Abundances (Grouped): 11 ([2]; Exp3, VDAC2): 149 | Abundances (Grouped): 11 with PU-H71 ([2]; Exp3, VDAC2, with PU-H71): 241.6 | Abundance Ratio: (11) / (DMSO) [2, 6]: 2.647 | Abundance Ratio: (11) / (11 with PU-H71) [2, 7]: 0.676 | Abundance Ratio: (11) / (DMSO) [2, 4]: 2.786 | Abundance Ratio: (11) / (11 with PU-H71) [2, 5]: 0.688 | Abundance Ratio: (11) / (11 with PU-H71) ([3]; Exp3, ALDH1A3): 0.892 | Abundance Ratio: (11) / (DMSO) ([3]; Exp3, ALDH1A3): 4.34 | Abundances (Grouped): 11 ([3]; Exp3, ALDH1A3): 42.1 | Abundances (Grouped): 11 with PU-H71 ([3]; Exp3, ALDH1A3, with PU-H71): 47.2 | Abundance Ratio: (11) / (DMSO) [3, 6]: 5.076 | Abundance Ratio: (11) / (11 with PU-H71) [3, 7]: 0.894 | Abundance Ratio: (11) / (DMSO) [3, 4]: 4.694 | Abundance Ratio: (11) / (11 with PU-H71) [3, 5]: 0.893
